Here are results for two compounds from patent publication EP0108452A1, “Treatment of gastric inflammatory disease with cytoprotective prostaglandins and histamine-2 blocking anti-secretory agents” (THE PROCTER & GAMBLE COMPANY, priority 1982, dated 1984).

The test system of the test is Male Sprague-Dawley rats. Nature of the test: Cysteamine duodenal ulcer model (cysteamine gastric ulcer model). The format is in vivo. Conditions: PG-V 5 mg/kg; for % of Cntrl.: damage grading score relative to veh. cntrl.; for % of Cntrl. / % of Redc'n.: oral x3; for Damage Grading Score: oral, x3 at 0, 4 and 8 hours after cysteamine 500 mg/kg s.c., lower score = greater protection; for % of Redc'n.: reduction of damage grading score vs veh. cntrl. The procedure: Male Sprague-Dawley rats weighing between 180 and 230 g are fasted for 24 hours during which time they are given ad libitum access to tap water. At the end of the 24 hour fast period, 500 mg/kg of cysteamine is administered subcutaneously. At the same time, the drug or control treatment is begun. The drug or control treatment consists of administering the drug or vehicle/control at 24 hours, 28 hours, and 32 hours after the fast has begun. That is, the drug, or vehicle/control treatment is administered at 0, 4 and 8 hours after the cysteamine. 48 hours after the fasting has begun, 24 hours after the administration of cysteamine, the rats are anesthetized and sacrificed. After sacrifice, the abdominal cavity is opened, and the stomach and approximately 2 inches of duodenum are excised and removed from the rat. They are placed on a 4" x 4" labelled index card. Care must be taken not to disturb the duodenum as this could affect the grading. The stomach and duodenum are cut open along the greater curvature and longitudinally along the anti-mesenteric side, respectively. The duodenum is carefully spread out without altering the orientation of the lesions and the thickness of the mucosa. They are viewed through a stereo microscope at approximately 7x magnification for gross examination of the stomach, pylorus and duodenal surface. For each duodenum, the amount of erythema, the amount of edema, a total lesion area and the severity of the lesions are evaluated according to the grading scale in Table 1. This is also repeated for the stomach. This information is recorded. The lower the score, the greater the protection. The lowest score which an agent can achieve in this model is the maximal intrinsic activity for this agent in this model. The smallest dosage of this agent which achieves this lowest score is the lowest dosage or level of administration which yields maximal intrinsic activity for this agent. [table] In Examples I-VIII, all were conducted in accordance with the cysteamine gastric ulcer model described above. The vehicle was 0.75% polyoxyethylene (20) sorbitan mono-oleate (Tween 80). All dosages were at a rate of 2.5 ml/kg. The treatment compositions were orally dosed at a volume of 2.5 mllkg, in accordance with the model, at 24, 28 and 32 hours after the beginning of the fast, or 0, 4 and 8 hours after the subcutaneous administration of cysteamine. In preparing the prostaglandin + […] compositions, the selected amount of prostaglandin and selected amount of cimetidine were added to a volume which was equivalent to 2.5 ml/kg for each animal. This was then given to the animal at 24, 28 and 32 hours respectively, after the beginning of the fast. The damage grading score was in accordance with the table provided in the cysteamine gastric ulcer model.

[1] abbreviates: Example I, Cimetidine 25 mg/kg, veh. cntrl. 9.0 ± 2.2.
Where [2] appears, read: Example II, Cimetidine 25 mg/kg.
[3] abbreviates: Example II, Cimetidine 25 mg/kg, veh. cntrl. 15.5 ± 4.5.
[4] abbreviates: Example III, Cimetidine 50 mg/kg.
The mark [5] stands for this setting: Example III, Cimetidine 50 mg/kg, veh. cntrl. 18.3 ± 3.7.

`CN/C(=N/CCSCc1nc[nH]c1C)NC#N` [Cimetidine]: the “% of Cntrl.” value (Example I, Cimetidine 25 mg/kg) is reported as 133%; the “% of Cntrl.” value under setting [2] is 159%; the “% of Cntrl.” value under setting [4] turned out to be 61%. Further, the “Damage Grading Score” value under setting [1] is on record as 12.0 ± 2.0, the “Damage Grading Score” value under setting [3] came out at 24.6 ± 1.3 and the “Damage Grading Score” value under setting [5] stood at 11.1 ± 3.0. For the same compound, the “% of Redc'n.” value by setting is: (Example I, Cimetidine 25 mg/kg) -33%; under setting [2], -59%; under setting [4], 39%.
Take `CCCCCC(=O)C#C[C@H]1CCC(=O)[C@@H]1OCCCCCC(=O)O` [PG-V, 9,15 dioxo-7-oxa-prost-13,14-ynoic acid]: the “% of Cntrl.” value runs as follows: (Example I, Cimetidine 25 mg/kg) 140%; under setting [2], 106%; under setting [4], 117%. In addition, the “Damage Grading Score” value was found to be 12.6 ± 2.6 under setting [1], 16.4 ± 3.3 under setting [3] and 21.5 ± 4.6 under setting [5]. In addition, the “% of Redc'n.” value runs as follows: (Example I, Cimetidine 25 mg/kg) -40%; under setting [2], -6%; under setting [4], -17%.
